From patent publication US10117909B2, “Combination of an insulin and a GLP-1 agonist” (Sanofi-Aventis Deutschland GmbH, priority 2008, dated 2018)
Entries after “also recorded” stand apart in the source; their conditions may differ.

Assay: Oral glucose tolerance test (OGTT) in healthy dogs
Format: in vivo, dog
Conditions: male beagle, n=6, single s.c. injection at time 0, insulin glargine 0.3 U/kg, AVE0010 10 μg/kg, relative to Lantus placebo; for OGTT-induced postprandial increase in blood glucose: repeated OGTT 2 g/kg p.o. at 30 min and 5 h; for blood glucose concentration in the postabsorptive phase: repeated OGTT 2 g/kg p.o.
Description: Model: Oral glucose tolerance test (OGTT) in healthy dogs: Comparison of the insulin glargine/AVE0010 combination with the two individual active compounds.
• Male normoglycemic beagles • Bodyweight: ˜15 kg • Number per group: n=6 Study Design (See FIG. 1) • Individual subcutaneous injections of placebo or test formulation at time 0 • 2 oral administrations of glucose, at 2 g of glucose/kg of bodyweight, at times 30 min and 5 h • Blood samples are taken to determine blood glucose, plasma insulin, and c-peptide Group Division (n=6) • Placebo (Lantus placebo formulation without API) • Insulin glargine (0.3 μl/kg s.c., equivalent to 1.8 nmol/kg). Insulin glargine is Gly(A21)-Arg(B31)-Arg(B32) human insulin. • AVE0010 (10 μg/kg s.c. in Lantus placebo formulation, equivalent to 2 nmol/kg).
AVE0010 is des Pro^36exendin-4(1-39)-Lys6-NH2. • AVE0010/insulin glargine combination (10 μg/kg AVE0010/0.3 μl/kg insulin glargine s.c.)

Substance | OGTT-induced postprandial increase in blood glucose | blood glucose concentration in the postabsorptive phase
Gly(A21)-Arg(B31)-Arg(B32) human insulin [insulin glargine] | does not prevent the OGTT-induced increase in blood glucose; also recorded: has no effect on the postprandial glucose level | reinforces the expected delayed lowering of blood glucose concentration in the postabsorptive phase
des Pro^36exendin-4(1-39)-Lys6-NH2 [AVE0010] | prevents the OGTT-induced postprandial increase in blood glucose almost completely | no effect on the glucose concentration in the postabsorptive phase; also recorded: has no effect on the level of glucose, which has fallen again following administration of glucose
